Assay: gradient 5% acetonitrile 3 min, to 50% in 2 min, to 85% in 15 min, held 3 min, 100 µL/min
Settings: column: Zorbax Extend-C18 2.1 x 50 mm; eluents: water / acetonitrile, 0.1% formic acid
How it was run: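 Each retention time is based on an adduct peak selected computationally and verified by manual inspection. Measurements used HPLC–quadrupole time-of-flight mass spectrometry in positive and negative ionization mode on mixtures of ~100 pure standards. Chromatography ran on a Zorbax Extend-C18 column (2.1 × 50 mm, 1.8 μm) at 100 μL/min with water and acetonitrile, each containing 0.1% formic acid, and dead and dwell volumes of 40 μL and 900 μL.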

Structure (SMILES) | RP-LC retention time
Cc1cccc(Nc2nc(-c3ccc([N+](=O)[O-])cc3)cs2)c1 | 1190 s
O=C(NCC(c1ccsc1)N1CCc2ccccc2C1)C(=O)NC1CCCC1 (centres undefined) | 592 s
CN1C(=O)c2cc(S(=O)(=O)Nc3cccc(Cl)c3)ccc2Oc2cccnc21 | 952 s
O=C(NC1CCCCCC1)C1CCN(Cc2cc3ccccc3n2Cc2ccccc2Cl)CC1 | 899 s
Cc1cc(C(=O)Nc2c3c(nn2C)CCC3)no1 | 611 s
O=c1c2sccc2n(Cc2nc(-c3ccccc3)no2)c(=O)n1Cc1ccc(F)cc1 | 1040 s
O=C(Cn1cc(-c2nc(-c3ccc(Cl)cc3)no2)ccc1=O)Nc1ccc2c(c1)OCO2 | 986 s
O=C(NCCc1csc(-c2ccccc2)n1)C1CCN(S(=O)(=O)c2cccc(Cl)c2)CC1 | 982 s
CCOc1cccc(CNC(=O)c2ccc3c(=O)n(Cc4ccccc4)c(N(CC)CC)nc3c2)c1 | 1170 s
CCN(CC)S(=O)(=O)c1ccc2c(c1)N(CC(=O)N1CCCC1)C(=O)C1CCCCN21 (centres undefined) | 835 s
CS/C(=C\c1ccc(C(=O)c2ccc(C)cc2)n1C)S(C)=O (centres undefined) | 1120 s
CN1C(=O)c2cccn2CC1C(=O)Nc1ccc(F)cc1F (centres undefined) | 696 s
Cc1ccc(-c2noc(Cn3ccn(-c4cccc(Cl)c4)c(=O)c3=O)n2)cc1 | 920 s
CCOc1ccc(CN(C(=O)Cc2coc3ccc(CC)cc23)C2CCS(=O)(=O)C2)cc1 (centres undefined) | 1050 s
O=C(CC1CCCC1)NCCC1CCN(C(=O)Nc2cc(F)cc(F)c2)CC1 | 905 s
Cc1ccccc1Nc1c(-c2cccc(Cl)c2)nc2ccc(Br)cn12 | 1120 s
CN(C)C(CNS(=O)(=O)c1cc(Cl)ccc1Cl)c1cccs1 (centres undefined) | 591 s
COc1ccc(-c2cn3c(CC(=O)Nc4cccc(Cl)c4)csc3n2)cc1OC | 791 s
O=C(c1ccc(Cl)s1)N1CCc2nc(-c3ccc(Cl)cc3)ncc2C1 | 1210 s
CCNc1cc(N2CCCC(CCC(=O)NCCN3CCCCC3)C2)ncn1 (centres undefined) | 551 s
CCn1ccc2sc(C)c(C(=O)NCc3ccc(F)cc3Cl)c2c1=O | 916 s
CCOC(=O)CC(=O)Nc1cc2c(cc1N1CCCC1)n(C)c(=O)n2C | 587 s
Cc1nnc(-c2ccc3ccn(CC(=O)NC(C)(C)C)c3c2)o1 | 718 s

Structure (SMILES) | RP-LC retention time
Cn1cnc2c(C(=O)N3CCCC3)nn(-c3ccc(Cl)cc3)c2c1=O | 758 s
Cc1cccc(-n2c(=O)c3c(cc(C)n3C)n(CC(=O)Nc3cc(C)ccc3C)c2=O)c1 | 844 s
COc1ccc(-c2csc3c(=O)n(CCOc4ccccc4)cnc23)cc1 | 1060 s
COc1cc(Cl)ccc1-c1nc(C2CC(=O)N(c3ccc(C)cc3)C2)no1 (centres undefined) | 1070 s
O=S(=O)(c1cccn2cnnc12)N(Cc1ccccc1F)c1ccc(F)c(F)c1 | 867 s
COc1ccc(C)cc1NC(=O)N1C[C@@H]2C[C@H]1C[C@@H]2NC(=O)c1cccs1 | 819 s
CC(C)N1C(=O)C(C)(C(=O)Nc2ccc(Cl)cc2)Oc2cccnc21 (centres undefined) | 903 s
Cc1noc([C@@H]2CN(C(=O)CCc3nc4ccccc4s3)C[C@H]2C(N)=O)n1 | 650 s
COCCOC(=O)c1c(C)oc2ccc(OC(=O)c3cccs3)cc12 | 1020 s
Cc1ccc(NC(=O)c2cn3c(n2)CCCC3)cc1 | 606 s
COc1cc(NC(=O)c2cccc([N+](=O)[O-])c2)c(OC)cc1Cl | 921 s
CC(C)n1nnc2cc(C(=O)N(C)CC(=O)Nc3ccc(Br)cc3F)ccc21 | 803 s
O=C(c1c(F)cccc1F)N1CCN(c2nc(CN3CCOCC3)cs2)CC1 | 608 s
Cn1cnc(S(=O)(=O)N2CC(Oc3ccccc3-c3nc(-c4ccccc4)no3)C2)c1 | 915 s
Cc1ccc(S(=O)(=O)N(CCN2CCCCC2C)CC(=O)N2CCNCC2)c(C)c1 (centres undefined) | 588 s
O=C1Nc2ccccc2C1(c1ccc(O)cc1)c1ccc(O)cc1 | 755 s
Cn1cnc(S(=O)(=O)N2CC(Oc3ccc(-c4noc(C5CC5)n4)cc3)C2)c1 | 794 s
CCCSCCCNC(=O)C1CCCN(c2nc3ccccc3n(CC)c2=O)C1 (centres undefined) | 1040 s
COc1cccc(NC(=O)C2CC(=O)N(c3ccc4c(c3)CCN4C(C)=O)C2)c1 (centres undefined) | 693 s
COc1ccc(-c2nnc(-c3cc(S(=O)(=O)N4CCCCC4)ccc3Cl)o2)cc1 | 1150 s
O=S(=O)(c1ccc2nc(N3CCN(c4cccc(Cl)c4)CC3)ccc2c1)N1CCCC1 | 1100 s
O=c1ccn(-c2ccc(F)c(F)c2)nc1-c1nc(-c2ccccc2F)no1 | 863 s
O=C(NCc1ccccn1)C1CCN(c2cnn(Cc3ccccc3)c(=O)c2)CC1 | 615 s

Structure (SMILES) | RP-LC retention time
CN1CCN(CCCNc2ccc(-c3nc(-c4ccc(F)cc4)no3)cn2)CC1 | 626 s
CCOc1cc(=O)n2c(c1C(=O)OCc1cccc(F)c1)CCCCC2 | 934 s
Cn1c(=O)oc2cc(-c3noc(/C=C/c4ccccc4)n3)ccc21 | 1060 s
CCOc1ccccc1C1C(C(=O)OC)=C(C)NC2=C1C(=O)c1ccccc12 (centres undefined) | 887 s
CN(C)C(=O)c1ccc2c(c1)N(CC(=O)NC1CCCCCC1)C(=O)C1CCCCN21 (centres undefined) | 801 s
CC(C)CNC(=O)c1nn(C)c2c1COc1ccccc1-2 | 690 s
CC(C)n1c(=O)sc2cc(S(=O)(=O)N3CCC(C(=O)NCCC4=CCCCC4)CC3)ccc21 | 1020 s
Cc1cc(OCC(=O)Nc2ccc(C#N)cc2)nc(-c2ccc(F)cc2)n1 | 976 s
COCCCNC(=O)Cn1c(=O)c2cccn2c2ccc(F)cc21 | 689 s
CCc1cc(=O)n(CC(=O)N2CCc3ccccc32)c(-c2ccccc2)n1 | 1170 s
CCOc1ccc(C2Cn3nnc(-c4nc(-c5ccc(C)cc5)no4)c3CO2)cc1 (centres undefined) | 1250 s
CCCc1cc(C(=O)N2CCCC2c2ccc(OC)cc2)no1 (centres undefined) | 1120 s
CC(C)Cn1nc2ccc(S(=O)(=O)N3CCC(C)CC3)cn2c1=O | 862 s
CCNS(=O)(=O)c1cc(-c2c(C)noc2C)ccc1C | 807 s
Cc1ccc(-c2nnc(Cc3nc(-c4cccc(C(F)(F)F)c4)no3)o2)cc1C | 1220 s
COc1ccc2nccc(/C=C/c3ccnc4ccc(OC)cc34)c2c1 | 671 s
Cc1nc2cccnc2n1CCN1CCN(C(=O)Nc2ccccc2Cl)CC1 | 584 s
Cc1ccc(CNC(=O)c2ccc(=O)n(CCN3CCCC3)c2)cc1 | 614 s
COc1ccc(S(=O)(=O)N2CCCC(C(=O)NCc3cccnc3)C2)cc1C (centres undefined) | 623 s
CCS(=O)(=O)N1CCN(C(=O)c2cc(-c3ccc(OC)cc3)n[nH]2)CC1 | 654 s
COCc1noc([C@@H]2CN(C(=O)C3(c4ccccc4)CC3)C[C@H]2CO)n1 | 676 s
Cc1cc(C)n2nc(SCC(=O)N(c3ccccc3)c3ccccc3)nc2n1 | 824 s
CNC(=O)c1cc(-c2ccc(OC)cc2)n(C)c1C | 783 s

Structure (SMILES) | RP-LC retention time
O=C(c1ccsc1)N1CCC2(CC1)NCc1ccccc1-n1ccnc12 | 588 s
COc1ccc(C)cc1NC(=O)N1CCC2(CC1)NC(=O)c1ccc(Cl)cc1N2 | 806 s
COC(=O)c1c(C)c(C(=O)C(C)N(CCC(C)C)C(=O)c2ccccc2Cl)c(C)n1C (centres undefined) | 1130 s
CC1=C(c2ccccc2)S(=O)(=O)N=C1N1CCC(NC(=O)C2CCOC2)CC1 (centres undefined) | 650 s
COc1cc2c(cc1CNC(=O)Cn1cc(C#N)c3ccccc31)OCCCO2 | 853 s
CNC(=O)c1n[nH]c2c1CC(C)CC2 (centres undefined) | 642 s
CN(C)CCn1c2c(c(SCC(=O)Nc3cccc(Cl)c3)nc1=O)CCC2 | 651 s
Cc1cc(N2CCOCC2)nc(N2CCN(S(=O)(=O)c3cc(C(C)C)ccc3C)CC2)n1 | 803 s
O=S(=O)(c1ccccc1)N1CCC(c2noc(-c3ccc(F)cc3)n2)CC1 | 791 s
CS(=O)(=O)c1ccc(CC(=O)Nc2nnc(C3CCCO3)o2)cc1 (centres undefined) | 578 s
Cc1ccc(-c2cc(C(=O)O)c3c(-c4ccc(C)cc4)[nH]nc3n2)cc1 | 856 s
COCCNC(=O)CCCn1c(=O)c2cccn2c2ccccc21 | 680 s
Cc1cc(F)ccc1NC(=O)C1CCN(S(=O)(=O)c2ccc3[nH]c(=O)ccc3c2)CC1 | 729 s
Cc1ccc(N2CC(c3noc(-c4nccc5ccccc45)n3)CC2=O)cc1 (centres undefined) | 961 s
CC(=O)N1CCc2cc(-c3ccc(C(=O)NCCCN4CCCCC4C)cc3)ccc21 (centres undefined) | 616 s
CCc1nc(-c2csc(S(=O)(=O)N3CCCC(C(=O)Nc4cc(Cl)ccc4C)C3)c2)no1 (centres undefined) | 1130 s
Cc1ccc(-c2nc(-c3cccc(-c4ccn[nH]4)c3)no2)c(C)c1 | 1150 s
Cn1cnc2cc(CNC(=O)c3cccs3)ccc21 | 571 s
CCN1CCN(Cc2ccc(C(=O)NCc3ccccc3C(F)(F)F)cc2)C(=O)C1=O | 721 s
CCCCNC(=O)C1CCCN(c2ccc(=O)n(-c3cccc(Cl)c3)n2)C1 (centres undefined) | 840 s
